Test results from publication PMC6494879, “Drug resistance emergence in macaques administered cabotegravir long-acting for pre-exposure prophylaxis during acute SHIV infection” (Nature Communications, 2019).
Like-named read-outs stand apart in the source and are kept apart here.

Details: for Median CAB: plasma, median of treated macaques
Method: CAB LA (200 mg/mL injectable stock aqueous suspension) was given at a dose of 50 mg kg^−1 under anesthesia by intramuscular injection into the quadriceps. Volumes greater than 1.0 mL were divided into two injection sites.

C[C@H]1CO[C@@H]2Cn3cc(C(=O)NCc4ccc(F)cc4F)c(=O)c(O)c3C(=O)N12 [CAB, cabotegravir]
time after which plasma CAB was below the limit of detection of the assay (four of the six animals): 115 to 176 days
Plasma CAB concentration (macaque 01D520, day 18): 11.2 µg/mL
Plasma CAB concentration (macaque 01D520, day 25): 7.1 µg/mL
Plasma CAB concentration (macaque 01D520, day 32): 2.24 µg/mL
Plasma CAB concentration (macaque 01D520, day 39): 0.239 µg/mL
Plasma CAB concentration (macaque 01D520, day 46): 6.87 µg/mL
Plasma CAB concentration (macaque 01D520, day 53): 5.88 µg/mL
Plasma CAB concentration (macaque 01D520, day 57): 4.57 µg/mL
Plasma CAB concentration (macaque 01D520, day 67): 0.943 µg/mL
Plasma CAB concentration (macaque 01D520, day 74): 6.2 µg/mL
Plasma CAB concentration (macaque 01D520, day 81): 4.17 µg/mL
Plasma CAB concentration (macaque 01D520, day 88): 2.42 µg/mL
Plasma CAB concentration (macaque 01D520, day 95): 0.992 µg/mL
Plasma CAB concentration (macaque 01D520, day 102): 0.432 µg/mL
Plasma CAB concentration (macaque 01D520, day 106): 0.273 µg/mL
Plasma CAB concentration (macaque 10D181, day 18): 3.2 µg/mL
Plasma CAB concentration (macaque 10D181, day 25): 3.88 µg/mL
Plasma CAB concentration (macaque 10D181, day 32): 2.79 µg/mL
Plasma CAB concentration (macaque 10D181, day 39): 1.33 µg/mL
Plasma CAB concentration (macaque 10D181, day 46): 3.45 µg/mL
Plasma CAB concentration (macaque 10D181, day 53): 5.06 µg/mL
Plasma CAB concentration (macaque 10D181, day 57): 3.47 µg/mL
Plasma CAB concentration (macaque 10D181, day 67): 1.51 µg/mL
Plasma CAB concentration (macaque 10D181, day 74): 2.76 µg/mL
Plasma CAB concentration (macaque 10D181, day 81): 3.57 µg/mL
Plasma CAB concentration (macaque 10D181, day 88): 2.78 µg/mL
Plasma CAB concentration (macaque 10D181, day 95): 1.5 µg/mL
Plasma CAB concentration (macaque 10D181, day 102): 0.454 µg/mL
Plasma CAB concentration (macaque 10D181, day 106): 0.227 µg/mL
Plasma CAB concentration (macaque 33996, day 18): 5.68 µg/mL
Plasma CAB concentration (macaque 33996, day 25): 6.38 µg/mL
Plasma CAB concentration (macaque 33996, day 32): 4.05 µg/mL
Plasma CAB concentration (macaque 33996, day 39): 3.3 µg/mL
Plasma CAB concentration (macaque 33996, day 46): 5.86 µg/mL
Plasma CAB concentration (macaque 33996, day 53): 9.39 µg/mL
Plasma CAB concentration (macaque 33996, day 57): 9.76 µg/mL
Plasma CAB concentration (macaque 33996, day 67): 1.4 µg/mL
Plasma CAB concentration (macaque 33996, day 74): 4.57 µg/mL
Plasma CAB concentration (macaque 33996, day 81): 6.04 µg/mL
Plasma CAB concentration (macaque 33996, day 88): 3.04 µg/mL
Plasma CAB concentration (macaque 33996, day 95): 1.43 µg/mL
Plasma CAB concentration (macaque 33996, day 102): 0.816 µg/mL
Plasma CAB concentration (macaque 33996, day 106): 0.611 µg/mL
Plasma CAB concentration (macaque 35451, day 18): 6.34 µg/mL
Plasma CAB concentration (macaque 35451, day 25): 4.47 µg/mL
Plasma CAB concentration (macaque 35451, day 32): 1.84 µg/mL
Plasma CAB concentration (macaque 35451, day 39): 0.819 µg/mL
Plasma CAB concentration (macaque 35451, day 46): 2.55 µg/mL
Plasma CAB concentration (macaque 35451, day 53): 4.01 µg/mL
Plasma CAB concentration (macaque 35451, day 57): 6.17 µg/mL
Plasma CAB concentration (macaque 35451, day 67): 3.19 µg/mL
Plasma CAB concentration (macaque 35451, day 74): 4.1 µg/mL
Plasma CAB concentration (macaque 35451, day 81): 2.89 µg/mL
Plasma CAB concentration (macaque 35451, day 88): 3.28 µg/mL
Plasma CAB concentration (macaque 35451, day 95): 2.43 µg/mL
Plasma CAB concentration (macaque 35451, day 102): 2.21 µg/mL
Plasma CAB concentration (macaque 35451, day 106): 1.25 µg/mL
Plasma CAB concentration (macaque CH54, day 18): 5.12 µg/mL
Plasma CAB concentration (macaque CH54, day 25): 5.14 µg/mL
Plasma CAB concentration (macaque CH54, day 32): 3.53 µg/mL
Plasma CAB concentration (macaque CH54, day 39): 1.14 µg/mL
Plasma CAB concentration (macaque CH54, day 46): 2.99 µg/mL
Plasma CAB concentration (macaque CH54, day 53): 2.32 µg/mL
Plasma CAB concentration (macaque CH54, day 57): 3.27 µg/mL
Plasma CAB concentration (macaque CH54, day 67): 4.33 µg/mL
Plasma CAB concentration (macaque CH54, day 74): 5.39 µg/mL
Plasma CAB concentration (macaque CH54, day 81): 5.03 µg/mL
Plasma CAB concentration (macaque CH54, day 88): 3.45 µg/mL
Plasma CAB concentration (macaque CH54, day 95): 1.97 µg/mL
Plasma CAB concentration (macaque CH54, day 102): 1.41 µg/mL
Plasma CAB concentration (macaque CH54, day 106): 0.707 µg/mL
Plasma CAB concentration (macaque CJ92, day 18): 6.99 µg/mL
Plasma CAB concentration (macaque CJ92, day 25): 3.55 µg/mL
Plasma CAB concentration (macaque CJ92, day 32): 3.13 µg/mL
Plasma CAB concentration (macaque CJ92, day 39): 2.92 µg/mL
Plasma CAB concentration (macaque CJ92, day 46): 3.62 µg/mL
Plasma CAB concentration (macaque CJ92, day 53): 2.88 µg/mL
Plasma CAB concentration (macaque CJ92, day 57): 3.47 µg/mL
Plasma CAB concentration (macaque CJ92, day 67): 3.7 µg/mL
Plasma CAB concentration (macaque CJ92, day 74): 5.46 µg/mL
Plasma CAB concentration (macaque CJ92, day 81): 6.56 µg/mL
Plasma CAB concentration (macaque CJ92, day 88): 4.022 µg/mL
Plasma CAB concentration (macaque CJ92, day 95): 1.93 µg/mL
Plasma CAB concentration (macaque CJ92, day 102): 1.54 µg/mL
Plasma CAB concentration (macaque CJ92, day 106): 0.994 µg/mL
Median CAB (day 18): 6.01 µg/mL
Median CAB (day 25): 4.805 µg/mL
Median CAB (day 32): 2.96 µg/mL
Median CAB (day 39): 1.235 µg/mL
Median CAB (day 46): 3.535 µg/mL
Median CAB (day 53): 4.535 µg/mL
Median CAB (day 57): 4.02 µg/mL
Median CAB (day 67): 2.35 µg/mL
Median CAB (day 74): 4.98 µg/mL
Median CAB (day 81): 4.6 µg/mL
Median CAB (day 88): 3.16 µg/mL
Median CAB (day 95): 1.715 µg/mL
Median CAB (day 102): 1.113 µg/mL
Median CAB (day 106): 0.659 µg/mL
CAB in plasma at the last measurement on day 204 (remaining two animals): detectable
